Experimental findings from US5885782A, “Synthetic antibiotics” (priority 1997, dated 1999) are described below.

Experiment [1] deals with Fusarum oxysporum f. sp. lycopersici race 1, strain RMI. Nature of the experiment: Checkerboard combination of peptide with antifungal agent (Limpel method), Fusarium. The class given is cell-based, Fusarium oxysporum. Further details: key to Expected Inhibition (Limpel formula): expected % inhibition, Ec = X + Y - XY/100 (Limpel). On the procedure:
(§1) Antimicrobial peptides were mixed with known antifungal compounds according to the checkerboard method of Eliopoulos and Moellering, 1991 and the effect of these mixtures was determined.
(§2) The checkerboard method requires serial dilutions of two antimicrobial compounds in concentration ranges spanning the minimal inhibitory concentrations (MICs) of the compounds. Synergism, antagonism, or additivity of the drug combinations was by measured by determining the antimicrobial effect of the various dilutions of the two drugs. Synergism existed when the antimicrobial effect of a mixture was greater than the sum of the independent antimicrobial effects of its combined components. Additivity was indicated when the antimicrobial effect of a drug combination was simply the sum of the independent antimicrobial effects. Antagonism existed when the antimicrobial effect of a mixture of drugs was less than the sum of the independent antimicrobial effects of the separate drugs.
Frozen glycerol stocks of F. oxysporum f. sp. lycopersici microconidia were used for the bioassays. Microconidia or spores were thawed on ice, washed 2× in PDB, and diluted in 2× PDB to obtain the appropriate inoculum concentration for the assay. The 2× PDB was employed for the dilutions to obtain a final concentration of I× PDB in each test well. Microtiter plates were incubated without shaking, in the dark, at 250 C. Absorbance readings were recorded at 24 hr intervals for 72 h. To follow growth in the microtiter plates, an EMAX PRECISION MICROPLATE READER (Molecular Devices Corp., Menlo Park, Calif.) attached to a HEWLETT-PACKARD THINK-JET (Hewlett-Packard Company, Vancouver, Wash.) printer was used to obtain the absorbance (at 595 run) readings. All test combinations were performed in triplicate. Sterile, disposable, flat bottom, polystyrene, 96~well (with lid) microtiter plates (Corning Glass Works, Scientific Products Division, Corning, N.Y.) were used to conduct the assays. The initial concentration of peptide FRLKFH-NH2 (Seq. ID No.34), peptide FRLKFHI-NH2 (Seq. ID No.40), nystatin (5.13 units/ug), and miconazole used in the assay series were 26, 60, 88, and 60 ug/ml, respectively. The checkerboard was setup as described by Eliopoulos and Moellering, 1991. Once the checkerboard mixtures were prepared 50 ul of inoculum […] was added to each of the wells. F. oxysporum f. sp. lycopersici microconidia were produced using FLC medium. Esposito, R. and Fletcher, A. M. 1961. A 4 mm square of an actively growing culture was taken from PDA to 50 ml of FLC broth in a sterile 250 ml screwcap flask. The culture was incubated with shaking […] at 250 C. After 96 h, the slurry of mycelia and microconidia was filtered twice through 3 layers of sterile cheesecloth to obtain the microconidial suspension. The microconidial suspension was adjusted to a concentration of 1-5×10^7 microconidial/ml using a Brightlme hemacytometer (Hausser Scientific, Horsham, Pa.) and stored frozen in I ml aliquots in 20% sterile glycerol at -80C.
(§3) Synergism between known antifungal compounds and antifungal peptides was also studied using the method of Limpel as described by Richer. Richer, D. L. 1987. The methodology of Limpel is described by the equation: […]
(§4) Where Ec is the expected additive effect of two antifungal agents, X is the observed percentage inhibition of the test organism when antifungal agent A is applied alone at the rate used in the mixture, and Y is the observed percentage inhibition of the test organism when antifungal agent B is used alone at the rate used in the mixture. […] Richer, D. L. 1987.
(§5) Experimental studies were set up using the checkerboard method as described by Eliopoulos and Moellering, 1991. The observed inhibitory effects of the antifungal agent and peptide combinations were measured as described above and compared with Ec as calculated from the Limpel formula.

Experiment [2] relates to Aspergillus paraciticus. Nature of the experiment: Checkerboard combination of peptide with antifungal agent (Limpel method), Aspergillus paraciticus. It counts as cell-based. The protocol: as §1, §2, §3, §4, §5
The test system of experiment [3] is Aspergillus fumigatus. Nature of the experiment: Checkerboard combination of peptide with antifungal agent (Limpel method), Aspergillus fumigatus. The class given is cell-based. The protocol: as §1, §2, §3, §4, §5
Setting [4] is: Nystatin 0.3 ug/ml, Peptide 0 ug/ml.
Setting [5] is: Nystatin 0.6 ug/ml, Peptide 0 ug/ml.
Setting [6] is: Nystatin 1.3 ug/ml, Peptide 0 ug/ml.
Where [7] appears, read: Nystatin 2.5 ug/ml, Peptide 0 ug/ml.
[8] abbreviates: Nystatin 5 ug/ml, Peptide 0 ug/ml.
The mark [9] stands for this setting: Nystatin 10 ug/ml, Peptide 0 ug/ml.
The mark [10] stands for this setting: Nystatin 20 ug/ml, Peptide 0 ug/ml.
Setting [11] is: Nystatin 0 ug/ml, Peptide 0.6 ug/ml.
Setting [12] is: Nystatin 0 ug/ml, Peptide 1.3 ug/ml.
[13] abbreviates: Nystatin 0 ug/ml, Peptide 2.5 ug/ml.
The mark [14] stands for this setting: Nystatin 0 ug/ml, Peptide 5 ug/ml.

As for `C[C@@H]1[C@H](O)[C@@H](C)/C=C/C=C/CC/C=C/C=C/C=C/C=C/C(O[C@H]2O[C@H](C)[C@@H](O)[C@H](N)[C@@H]2O)CC2O[C@](O)(CC(O)C(O)CCC(O)CC(O)CC(O)CC(=O)O[C@H]1C)CC(O)C2C(=O)O` (stereo partly drawn) [Nystatin, nystatin], the “Expected Inhibition (Limpel formula)” value in experiment [1] (setting [4]) was 6.0; in experiment [1] (setting [5]), 3.0; in experiment [1] (setting [6]), 4.0; in experiment [1] (setting [7]) it was 1.0; in experiment [1] (setting [8]), 16.0; in experiment [1] (setting [9]) it was 100.0. The “Expected Inhibition (Limpel formula)” value in experiment [1] (setting [10]) amounted to 100.0. Also, the “Observed Inhibition (percentage inhibition)” value in experiment [1] (setting [4]) is recorded as 6.0; in experiment [1] (setting [5]), 3.0; in experiment [1] (setting [6]), 4.0; in experiment [1] (setting [7]), 1.0; in experiment [1] (setting [8]), 16.0; in experiment [1] (setting [9]), 100.0. The “Observed Inhibition (percentage inhibition)” value in experiment [1] (setting [10]) came out at 100.0.

In the case of “FRLKFHI [D- amino acid heptapeptide FRLKFHI-NH2]”, the “interaction with miconazole (observed vs expected inhibition)” value in experiment [2] (peptide 3.8-60 ug/ml, miconazole 0.2-1.3 ug/ml, Table XXIII) is “synergism”; in experiment [3] (peptide 1.340 ug/ml, miconazole 0.5-2.0 ug/ml, Table XIX), “synergism”. In experiment [1] (peptide 0.9-7.0 ug/ml, amphotericin B 0.9-7.5 ug/ml, Fusarium oxysporum, Table XV), the “interaction with amphotericin B (observed vs expected inhibition)” value is “synergism”. The “interaction with fluconazole (observed vs expected inhibition)” value is recorded as “synergism” in experiment [1] (peptide 1.3-20 ug/ml, fluconazole 28.7-229.5 ug/ml, Fusarium oxysporum, Table XXVII) and “synergism” in experiment [3] (peptide 1.3-20 ug/ml, fluconazole 28.7-229.5 ug/ml, Table XXI).

Take “FRLKFH: D-amino acid hexapeptide FRLKFH-NH2”: in experiment [1] (peptide 5.0-10.0 ug/ml, amphotericin B 0.3-2.0 ug/ml, Fusarium oxysporum, Table XVI), the “interaction with amphotericin B (observed vs expected inhibition)” value is reported as “synergism”. Further, the “interaction with nystatin (observed vs expected inhibition)” value in experiment [3] (peptide 4.4-7.5 ug/ml, nystatin 0.6-2.5 ug/ml, Table XXII) was “synergism”. Also, the “interaction with miconazole (observed vs expected inhibition)” value in experiment [3] (peptide 17.5-70 ug/ml, miconazole 0.3-2.0 ug/ml, Table XX) is “synergism”.

With “FRLKFHF [D-amino acid heptapeptide FRLKFHF-NH2]”, the “interaction with amphotericin B (observed vs expected inhibition)” value in experiment [2] (peptide 2.5-10 ug/ml, amphotericin B 0.2-0.6 ug/ml, Table XXIV) is on record as “synergism”. The “interaction with nystatin (observed vs expected inhibition)” value in experiment [2] (peptide 2.5-10 ug/ml, nystatin 0.3-5.0 ug/ml, Table XXVI) is “synergism”; in experiment [1] (nystatin 0.3-5 ug/ml, peptide 0.6-5 ug/ml, Fusarium oxysporum, Table XIV), “synergism”. In addition, the “interaction with fluconazole (observed vs expected inhibition)” value in experiment [2] (peptide 2.5-20 ug/ml, fluconazole 7.5-120 ug/ml, Table XXV) is recorded as “synergism”; in experiment [3] (peptide 1.3-20.0 ug/ml, fluconazole 29-230 ug/ml, Table XVIII), “synergism”. Moreover, the “Expected Inhibition (Limpel formula)” value is recorded as 2.0 in experiment [1] (setting [11]), 0.0 in experiment [1] (setting [12]), 13.0 in experiment [1] (setting [13]) and 29.0 in experiment [1] (setting [14]). Besides, the “Observed Inhibition (percentage inhibition)” value in experiment [1] (setting [11]) turned out to be 2.0; in experiment [1] (setting [12]), 0.0; in experiment [1] (setting [13]), 13.0; in experiment [1] (setting [14]) it was 29.0. The “interaction with miconazole (observed vs expected inhibition)” value in experiment [1] (peptide 1.3-5.0 ug/ml, miconazole 0.6-20 ug/ml, Fusarium oxysporum, Table XVII) is “synergism”.
